Data taken from US12129237B2, “Substituted diaminocarboxamide and diaminocarbonitrile pyrimidines, compositions thereof, and methods of treatment therewith” (SIGNAL PHARMACEUTICALS, LLC, priority 2011, dated 2024).
pIC50: −log10 of the molar value.

Molecular target: T1, JNK1 (Homo sapiens, UniProt P45983)
T1 construct: purchased Carna Biosciences
Test: JNK1 biochemical assays (one or more of: time resolved fluorescence, Z'-LYTE Cascade, radioactive)
Conditions: Table 2; JNK1 IC50 activity level; read-out: Act. Level

T1 sequence (P45983 whole entry): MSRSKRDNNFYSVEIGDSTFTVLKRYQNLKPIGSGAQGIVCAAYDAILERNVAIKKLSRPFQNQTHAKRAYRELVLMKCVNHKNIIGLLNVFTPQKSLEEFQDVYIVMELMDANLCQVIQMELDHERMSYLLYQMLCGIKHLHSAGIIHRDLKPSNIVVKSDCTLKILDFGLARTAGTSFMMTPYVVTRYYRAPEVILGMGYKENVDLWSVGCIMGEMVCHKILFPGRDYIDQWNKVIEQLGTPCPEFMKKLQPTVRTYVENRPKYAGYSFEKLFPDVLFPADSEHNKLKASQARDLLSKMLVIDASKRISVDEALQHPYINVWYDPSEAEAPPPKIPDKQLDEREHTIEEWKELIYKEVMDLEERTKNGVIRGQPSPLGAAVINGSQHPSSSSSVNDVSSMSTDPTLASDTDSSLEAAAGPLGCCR

Row | Structure (SMILES) | pIC50
1 | CC(=O)N[C@H]1CC[C@H](Nc2ncc(C(N)=O)c(Nc3ccccc3)n2)CC1 [Example B-6, 2-((1r,4r)-4-acetamidocyclohexylamino)-4-(phenylamino)pyrimidine-5-carboxamide] | > 6.70
2 | NC(=O)c1cnc(NCc2ccc(F)cc2)nc1Nc1ccccc1 [Example B-67, 2-(4-fluorobenzylamino)-4-(phenylamino)pyrimidine-5-carboxamide] | 6.10 to 6.70
3 | CC(C)Nc1nc(N[C@H]2CCc3cnccc3C2)ncc1C(N)=O [Example B-91, (S)-4-(isopropylamino)-2-(5,6,7,8-tetrahydroisoquinolin-6-ylamino)pyrimidine-5-carboxamide] | 6.10 to 6.70
4 | COc1cc(Nc2ncc(C(N)=O)c(Nc3ccccc3)n2)cc(OC)c1 [Example B-23, 2-(3,5-dimethoxyphenylamino)-4-(phenylamino)pyrimidine-5-carboxamide] | > 6.70
5 | NC(=O)c1cnc(N[C@@H]2CCc3ccccc3C2)nc1N[C@@H]1CCC[C@H](O)C1 [Example B-84, 4-((1R,3S)-3-hydroxycyclohexylamino)-2-((R)-1,2,3,4-tetrahydronaphthalen-2-ylamino)pyrimidine-5-carboxamide] | > 6.70
6 | COc1ccc(CNc2ncc(C(N)=O)c(Nc3ccccc3)n2)cc1OC [Example B-43, 2-(3,4-dimethoxybenzylamino)-4-(phenylamino)pyrimidine-5-carboxamide] | 6.10 to 6.70
7 | Cc1ccnc(Nc2ncc(C(N)=O)c(Nc3ccccc3)n2)n1 [Example B-21, 2-(4-methylpyrimidin-2-ylamino)-4-(phenylamino)pyrimidine-5-carboxamide] | 5.00 to 6.00
8 | NC(=O)c1cnc(NC2CCNCC2)nc1Nc1ccccc1 [Example B-9, 4-(phenylamino)-2-(piperidin-4-ylamino)pyrimidine-5-carboxamide] | 5.00 to 6.00

Same assay, conditions: Table 3; JNK1 IC50 activity level; read-out: Act. Level

Row | Structure (SMILES) | pIC50
9 | N#Cc1cnc(NC2CCOCC2)nc1N[C@@H]1CCC[C@H](O)C1 [Example C-5, 4-((1R,3S)-3-hydroxycyclohexylamino)-2-(tetrahydro-2H-pyran-4-ylamino)pyrimidine-5-carbonitrile] | 6.10 to 6.70
10 | CC(C)CNc1nc(N[C@H]2CC[C@H](O)CC2)ncc1C#N [Example C-55, 2-((1r,4r)-4-hydroxycyclohexylamino)-4-(isobutylamino)pyrimidine-5-carbonitrile] | 5.00 to 6.00
11 | CC(C)(C)Nc1ncc(C#N)c(NC(C)(C)C)n1 [Example C-63, 2,4-bis(tert-butylamino)pyrimidine-5-carbonitrile] | 6.10 to 6.70
12 | CC(C)(C)Nc1ncc(C#N)c(N[C@@H]2CCCC[C@H](O)C2)n1 [Example C-38, 2-(tert-butylamino)-4-((1R,3S)-3-hydroxycycloheptylamino) pyrimidine-5-carbonitrile] | > 6.70

Same assay, conditions: one or more of the JNK1 biochemical assays; read-out: Act. Level (JNK1 IC50 activity level)

Row | Structure (SMILES) | pIC50
13 | CCO[C@H]1CC[C@H](Nc2ncc(C(N)=O)c(N[C@@H](CC)C3CC3)n2)CC1 [Example 373, 4-((S)-1-cyclopropylpropylamino)-2-((1r,4S)-4-ethoxycyclohexylamino)pyrimidine-5-carboxamide] | > 6.70
14 | C[C@H](Nc1ncc(C(N)=O)c(N[C@@H]2CC[C@@H](C)[C@H](O)C2)n1)C1CCC1 [Example 460, 2-((S)-1-cyclobutylethylamino)-4-((1R,3R,4R)-3-hydroxy-4-methylcyclohexylamino)pyrimidine-5-carboxamide] | > 6.70
15 | CCO[C@H]1CC[C@H](Nc2ncc(C(N)=O)c(N[C@H](C)C3CCC3)n2)CC1 [Example 294, 4-((R)-1-cyclobutylethylamino)-2-((1r,4R)-4-ethoxycyclohexylamino)pyrimidine-5-carboxamide] | 5.00 to 6.00
16 | C[C@]1(O)CCC[C@@H](Nc2nc(NC3CCC3)ncc2C(N)=O)C1 [Example 340, 2-(cyclobutylamino)-4-((1R,3S)-3-hydroxy-3-methylcyclohexylamino)pyrimidine-5-carboxamide] | > 6.70
17 | CC(C)[C@@H](C)Nc1ncc(C(N)=O)c(N[C@@H]2CC[C@@H](C)[C@H](O)C2)n1 [Example 470, 4-((1R,3R,4R)-3-hydroxy-4-methylcyclohexylamino)-2-((R)-3-methylbutan-2-ylamino)pyrimidine-5-carboxamide] | > 6.70
18 | CC(C)(C)Nc1nc(N[C@H]2CC[C@H](OC3CC3)CC2)ncc1C(N)=O [Example 304, 4-(tert-butylamino)-2-((1r,4r)-4-cyclopropoxycyclohexylamino)pyrimidine-5-carboxamide] | > 6.70
19 | CC(C)Nc1nc(NC23CCC(F)(CC2)CC3)ncc1C(N)=O [Example 253, 2-(4-fluorobicyclo[2.2.2]octan-1-ylamino)-4-(isopropylamino)pyrimidine-5-carboxamide] | > 6.70
20 | CC(C)Nc1ncc(C(N)=O)c(N[C@@H]2CCC[C@](C)(O)C2)n1 [Example 338, 4-((1R,3S)-3-hydroxy-3-methylcyclohexylamino)-2-(isopropylamino)pyrimidine-5-carboxamide] | > 6.70
21 | C[C@H](Nc1nc(N[C@H]2CC[C@H](O)CC2)ncc1C(N)=O)C(C)(C)C [Example 280, 4-((S)-3,3-dimethylbutan-2-ylamino)-2-((1r,4S)-4-hydroxycyclohexylamino)pyrimidine-5-carboxamide] | > 6.70
22 | CC(C)[C@H](C)Nc1ncc(C(N)=O)c(N[C@@H]2CC[C@@H](C)[C@H](O)C2)n1 [Example 471, 4-((1R,3R,4R)-3-hydroxy-4-methylcyclohexylamino)-2-((S)-3-methylbutan-2-ylamino)pyrimidine-5-carboxamide] | > 6.70
23 | CCO[C@H]1CC[C@H](Nc2ncc(C(N)=O)c(NC3C4CC3C4)n2)CC1 (stereo partly drawn) [Example 476, 4-(bicyclo[1.1.1]pentan-2-ylamino)-2-((1r,4r)-4-ethoxycyclohexylamino)pyrimidine-5-carboxamide] | > 6.70
24 | CC(C)Nc1nc(NC(C)(C)C)ncc1C(N)=O [Example 227, 2-(tert-butylamino)-4-(isopropylamino)pyrimidine-5-carboxamide] | 6.10 to 6.70
25 | CN(C)C(=O)[C@H]1CC[C@H](Nc2ncc(C(N)=O)c(NC3CCC3)n2)CC1 [Example 437, 4-(cyclobutylamino)-2-((1r,4r)-4-(dimethylcarbamoyl)cyclohexylamino)pyrimidine-5-carboxamide] | > 6.70
26 | CCC(C)(C)Nc1nc(NC23CCC(O)(CC2)C3)ncc1C(N)=O [Example 452, 2-(4-hydroxybicyclo[2.2.1]heptan-1-ylamino)-4-(tert-pentylamino)pyrimidine-5-carboxamide] | > 6.70
27 | C[C@@H](Nc1nc(N[C@H]2CC[C@H](OC3CC3)CC2)ncc1C(N)=O)C1CC1 [Example 410, 2-((1r,4R)-4-cyclopropoxycyclohexylamino)-4-((R)-1-cyclopropylethylamino)pyrimidine-5-carboxamide] | > 6.70
28 | CC(C)(CO)Nc1nc(N[C@H]2CC[C@H](O)CC2)ncc1C(N)=O [Example 311, 4-(1-hydroxy-2-methylpropan-2-ylamino)-2-((1r,4r)-4-hydroxycyclohexylamino)pyrimidine-5-carboxamide] | > 6.70
29 | CC(C)(Nc1nc(N[C@H]2CCC[C@H](O)C2)ncc1C(N)=O)C1CC1 [Example 456, 4-(2-cyclopropylpropan-2-ylamino)-2-((1S,3S)-3-hydroxycyclohexylamino)pyrimidine-5-carboxamide] | > 6.70

Same assay, conditions: tested in one or more of the JNK1 biochemical assays; read-out: Act. Level (JNK1 biochemical assay IC50 activity level)

Row | Structure (SMILES) | pIC50
30 | NC(=O)c1cnc(NC2CCOCC2)nc1N[C@@H]1CCCC[C@H](O)C1 [Example A-166, 4-((1R,3S)-3-hydroxycycloheptylamino)-2-(tetrahydro-2H-pyran-4-ylamino)pyrimidine-5-carboxamide] | > 6.70
31 | CC(C)Nc1nc(N[C@H]2CC[C@H](C(C)(C)O)CC2)ncc1C(N)=O [Example A-6, 2-((1r,4r)-4-(2-hydroxypropan-2-yl)cyclohexylamino)-4-(isopropylamino)pyrimidine-5-carboxamide] | > 6.70
32 | COC[C@H]1CC[C@@H](Nc2nc(N[C@H]3CC[C@H](O)CC3)ncc2C(N)=O)CC1 [Example A-109, 2-((1r,4r)-4-hydroxycyclohexylamino)-4-((1s,4s)-4-(methoxymethyl)cyclohexylamino)pyrimidine-5-carboxamide] | > 6.70
33 | CO[C@H]1CC[C@@H](Nc2nc(N[C@H]3CC[C@H](O)CC3)ncc2C(N)=O)CC1 [Example A-100, 2-((1r,4r)-4-hydroxycyclohexylamino)-4-((1s,4s)-4-methoxycyclohexylamino)pyrimidine-5-carboxamide] | > 6.70
34 | CO[C@H]1CCC[C@@H](Nc2ncc(C(N)=O)c(N[C@@H]3CCC[C@H](O)C3)n2)CC1 [Example A-163, 4-((1R,3S)-3-hydroxycyclohexylamino)-2-((1R,4S)-4-methoxycycloheptylamino)pyrimidine-5-carboxamide] | > 6.70
35 | NC(=O)c1cnc(NC2CCCCC2)nc1N[C@H]1CC[C@@H](O)CC1 [Example A-147, 2-(cyclohexylamino)-4-((1s,4s)-4-hydroxycyclohexylamino)pyrimidine-5-carboxamide] | > 6.70
36 | CCO[C@H]1CC[C@H](Nc2ncc(C(N)=O)c(N[C@H]3CCOC3)n2)CC1 [Example A-105, 2-((1r,4S)-4-ethoxycyclohexylamino)-4-((S)-tetrahydrofuran-3-ylamino)pyrimidine-5-carboxamide] | > 6.70
37 | COC(=O)N1CCC(Nc2ncc(C(N)=O)c(NC3CCCCC3)n2)CC1 [Example A-123, methyl 4-(5-carbamoyl-4-(cyclohexylamino)pyrimidin-2-ylamino)piperidine-1-carboxylate] | > 6.70
38 | CC(C)CC(=O)N1CCC(Nc2ncc(C(N)=O)c(NC3CCOCC3)n2)CC1 [Example A-110, 2-(1-(3-methylbutanoyl)piperidin-4-ylamino)-4-(tetrahydro-2H-pyran-4-ylamino)pyrimidine-5-carboxamide] | 6.10 to 6.70
39 | CCO[C@H]1CC[C@@H](Nc2nc(N[C@@H]3CC[C@@H](O)C3)ncc2C(N)=O)CC1 [Example A-95, 4-((1s,4S)-4-ethoxycyclohexylamino)-2-((1R,3R)-3-hydroxycyclopentylamino)pyrimidine-5-carboxamide] | > 6.70
